Like-named read-outs stand apart in the source and are kept apart here.
Columns and labels:
[1] = target: T1, μ receptor (Cavia porcellus, UniProt A0ACM8Q262); details: read-out: antagonist activity apparent Ki (nM ± SD) μ; inhibition of DAMGO (10 μM) stimulated [35S]GTP-γ-S binding
[2] = target: T2, κ receptor (Cavia porcellus, UniProt P41144); test: biochemical
[3] = target: T3, opioid κ receptor (Cavia porcellus, UniProt P41144); details: data from Ananthan et al. (I); cited from earlier work
T3 sequence (P41144 whole entry): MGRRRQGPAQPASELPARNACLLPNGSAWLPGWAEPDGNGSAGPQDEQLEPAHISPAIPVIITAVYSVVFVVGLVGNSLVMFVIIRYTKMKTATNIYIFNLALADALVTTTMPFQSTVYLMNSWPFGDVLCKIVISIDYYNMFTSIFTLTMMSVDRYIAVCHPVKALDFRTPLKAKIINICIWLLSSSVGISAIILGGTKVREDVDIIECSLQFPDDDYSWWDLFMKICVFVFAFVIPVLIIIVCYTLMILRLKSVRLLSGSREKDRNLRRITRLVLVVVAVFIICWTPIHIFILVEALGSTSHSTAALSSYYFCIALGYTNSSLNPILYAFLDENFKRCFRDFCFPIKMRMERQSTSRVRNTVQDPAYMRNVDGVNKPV

[4] = target: T4, opioid μ receptor (Rattus norvegicus, UniProt P33535); details: data from Ananthan et al. (I); cited from earlier work
T4 sequence (P33535 whole entry): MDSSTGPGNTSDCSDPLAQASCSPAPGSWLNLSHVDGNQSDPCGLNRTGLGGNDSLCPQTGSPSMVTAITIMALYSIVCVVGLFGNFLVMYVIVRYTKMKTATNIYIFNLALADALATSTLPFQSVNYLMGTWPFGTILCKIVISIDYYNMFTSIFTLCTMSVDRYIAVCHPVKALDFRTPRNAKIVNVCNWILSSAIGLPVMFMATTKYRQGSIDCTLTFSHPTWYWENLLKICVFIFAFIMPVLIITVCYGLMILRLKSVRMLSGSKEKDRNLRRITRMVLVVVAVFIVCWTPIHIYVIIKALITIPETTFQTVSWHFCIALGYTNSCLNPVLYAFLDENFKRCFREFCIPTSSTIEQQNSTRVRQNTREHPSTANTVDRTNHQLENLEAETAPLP

[5] = target: T5, δ receptor (mouse vas deferens) (Mus musculus, UniProt P32300); design: from tissue; host or cells: mouse vas deferens (male ICR mice); details: DPDPE as agonist; data from Ananthan et al. (I); cited from earlier work
T5 sequence (P32300 whole entry): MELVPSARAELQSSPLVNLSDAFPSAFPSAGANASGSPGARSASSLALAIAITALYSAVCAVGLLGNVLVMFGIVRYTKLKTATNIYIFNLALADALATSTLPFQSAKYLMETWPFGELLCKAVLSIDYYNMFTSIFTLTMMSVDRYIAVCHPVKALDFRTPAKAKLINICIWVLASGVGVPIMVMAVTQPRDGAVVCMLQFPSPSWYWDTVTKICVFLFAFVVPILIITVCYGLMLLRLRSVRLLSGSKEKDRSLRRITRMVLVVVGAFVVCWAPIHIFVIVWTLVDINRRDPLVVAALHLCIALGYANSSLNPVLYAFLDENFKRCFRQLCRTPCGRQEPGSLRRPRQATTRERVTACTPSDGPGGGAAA

[6] = target: T5, δ receptor (mouse vas deferens); details: percentage inhibition of contraction at 1 μM; data from Ananthan et al. (I); cited from earlier work
[7] = target: μ receptor (guinea pig ileum) (Cavia porcellus, UniProt A0ACM8Q262); details: data from Ananthan et al. (I), cited from earlier work
μ receptor (guinea pig ileum), sequence (A0ACM8Q262 1-400): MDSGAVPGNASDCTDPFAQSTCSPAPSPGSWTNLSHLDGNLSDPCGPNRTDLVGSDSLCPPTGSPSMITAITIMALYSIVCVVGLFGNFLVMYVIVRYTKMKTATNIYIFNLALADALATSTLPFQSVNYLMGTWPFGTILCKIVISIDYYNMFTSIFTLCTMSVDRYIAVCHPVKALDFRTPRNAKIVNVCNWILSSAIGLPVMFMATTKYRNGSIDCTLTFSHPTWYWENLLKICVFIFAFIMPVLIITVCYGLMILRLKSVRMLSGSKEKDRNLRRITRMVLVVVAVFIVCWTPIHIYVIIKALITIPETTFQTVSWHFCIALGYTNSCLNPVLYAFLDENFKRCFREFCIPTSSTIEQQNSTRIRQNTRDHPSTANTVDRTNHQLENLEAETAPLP

[8] = target: T3, opioid κ receptor; details: for selectivity ratio κ/δ: ratio of binding Ki values; for Ki: read-out: Ki (nM) ± SEM κ, displacement of [3H]U69,593 (1.2-[…]), guinea pig brain membranes
[9] = target: T5, δ receptor (mouse vas deferens); test: Mouse vas deferens (MVD) smooth muscle bioassay; details: inhibition of electrically stimulated contractions; read-out: agonist activity MVD (δ) IC50
Method: (§1) Bioassays in Smooth Muscle Preparations. The functional activity profiles of selected ligands are also determined in the mouse vas deferens (MVD) and guinea pig ileum (GPI) smooth muscle preparations as described previously.
(§2) The agonist activity is determined by the ability of the compound to inhibit electrically stimulated contractions of the GPI and MVD. The GPI is primarily a μ receptor preparation, even though the ileum does also contain κ receptors. In the MVD, the opioid effects are predominantly mediated through δ receptors, but μ and κ receptors also exist in this tissue.
(§3) Tissues came from male ICR mice weighing 25-40 g and male Hartley guinea pigs weighing 250-500 g. The tissues are tied to gold chain with suture silk, suspended in 20 mL baths containing 37° C. oxygenated (95% O2, 5% CO2) Krebs bicarbonate solution (magnesium free for the MVD), and allowed to equilibrate for 15 min. The tissues are then stretched to optimal length previously determined to be 1 g tension (0.5 g for MVD) and allowed to equilibrate for 15 min. The tissues are stimulated transmurally between platinum wire electrodes at 0.1 Hz, 0.4 ms pulses (2-ms pulses for MVD), and supramaximal voltage. […] Tissues not producing typical results are not used. Experimental compounds were added to the baths in 14-60 μL volumes. Succeeding doses of agonist are added cumulatively to the bath at 3 min intervals to produce a concentration-response curve. The tissues are then washed extensively with fresh buffer until the original contraction height is reestablished. […] The tissues are then washed with fresh buffer for 30 min, and the agonist dose-response curve was repeated. Rightward shifts in the dose-response curves are calculated by dividing the antagonized dose-response curve IC50 value by the unantagonized IC50 value. IC50 values represent the mean of two to four tissues. IC50 estimates and their associated standard errors are determined by using a computerized nonlinear least-squares method. (MINSQ Least Squares Parameter Estimation, version 3.05; MicroMath Inc., 1999.)

[10] = target: T1, μ receptor; test: biochemical; details: read-out: agonist activity Emax % μ
[11] = target: T6, opioid δ receptor (Rattus norvegicus, UniProt P33533); test: Opioid δ receptor binding, [3H]DADLE displacement in rat brain membranes
T6 construct: Rat membranes are prepared each day using a partially thawed frozen rat brain; from tissue; host or cells: rat brain membranes
T6 sequence (P33533 whole entry): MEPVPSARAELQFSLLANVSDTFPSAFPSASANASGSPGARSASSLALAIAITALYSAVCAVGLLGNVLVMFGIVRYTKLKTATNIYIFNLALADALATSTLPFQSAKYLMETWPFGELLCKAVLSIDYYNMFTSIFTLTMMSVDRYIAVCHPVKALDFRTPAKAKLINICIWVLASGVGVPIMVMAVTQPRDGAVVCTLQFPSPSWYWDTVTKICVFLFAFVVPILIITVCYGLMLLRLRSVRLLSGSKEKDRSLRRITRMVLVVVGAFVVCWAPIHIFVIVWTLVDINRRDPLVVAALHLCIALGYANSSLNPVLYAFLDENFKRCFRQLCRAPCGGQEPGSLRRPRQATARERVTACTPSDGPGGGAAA

[12] = target: T7, δ receptor (Cavia porcellus, UniProt A0A286XTF2); details: for maximum percentage inhibition of SNC-80 stimulated [35S]GTP-γ-S binding: δ receptors, partial inhibition with increasing concentrations
T7 sequence (A0A286XTF2 1-366): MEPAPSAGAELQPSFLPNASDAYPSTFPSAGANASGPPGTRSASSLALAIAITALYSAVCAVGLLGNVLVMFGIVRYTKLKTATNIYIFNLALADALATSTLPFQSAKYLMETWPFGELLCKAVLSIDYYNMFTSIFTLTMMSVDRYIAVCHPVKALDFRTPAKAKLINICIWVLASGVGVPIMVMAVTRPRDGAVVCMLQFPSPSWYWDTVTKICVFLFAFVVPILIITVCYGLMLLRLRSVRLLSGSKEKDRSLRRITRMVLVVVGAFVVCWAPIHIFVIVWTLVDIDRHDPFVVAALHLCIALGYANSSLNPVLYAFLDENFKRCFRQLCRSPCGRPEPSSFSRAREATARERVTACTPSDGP

[13] = test system: mice; test: 55° C. tail-flick antinociception test in mice; details: for naloxone sensitivity: naloxone 10 mg/kg ip, -10 min, yes = greater than 80% reduction in the antinociceptive effect
Method: Analgesic Testing and Assessment of Tolerance Development. The analgesic activity of selected ligands is tested in mice using the 55° C. tail-flick test as previously described. (See Wells et al., supra.) The test compounds are administered by the intracerbroventricular (icv) route. […] To determine whether the analgesic activity of the tested compounds is mediated through opioid receptors, the blockade of antinociceptive activity by pretreatment with naloxone is carried out. The analgesic activity was considered as naloxone sensitive if greater than 80% reduction in the antinociceptive response is observed.
Antinociceptive Studies. Male ICR mice (Harlan) are used for all evaluations. Mice are housed in a temperature and humidity controlled vivarium on a 12:12 h light:dark cycle with unlimited access to food and water prior to the formal procedures. […] The dihydrochloride salt of 7h is dissolved in water and injected in a volume of 5 μL. All other compounds are dissolved in 100% DMSO and injected in a volume of 5 μL. Antinociceptive assays are performed at various times after injection.
Percent antinociception is calculated using the formula: % MPE (maximal possible effect)=100×(test−control)/(cutoff−control) where control is the predrug observation, test is the postdrug observation, and cutoff is the maximal length of stimulus allowed (10 s for 55° C. tail-flick). Antinociceptive A50 values and 95% confidence intervals are determined using linear regression software (FlashCalc). Opioid activity of the test compounds are assessed by pretreating animals with naloxone (10 mg/kg ip, −10 min) followed by an icv injection of an approximate A90 dose of test compound. […] Antinociception is assessed in the 55° C. tail-flick test at 10, 20 and 30 min. A positive response to a fixed dose of naloxone is indicated when greater than 80% reduction in the antinociceptive effect of the agonist is observed.

[14] = target: T4, opioid μ receptor; details: for selectivity ratio μ/δ: ratio of binding Ki values; for Ki: read-out: Ki (nM) ± SEM μ, displacement of [3H]DAMGO (1.4-3.0 nM), rat brain membranes
[15] = target: T7, δ receptor; test: biochemical
[16] = target: T5, δ receptor (mouse vas deferens); test: Mouse vas deferens (MVD) smooth muscle bioassay; design: from tissue; host or cells: mouse vas deferens (male ICR mice); details: for antagonist activity MVD (δ) Ke: DPDPE as agonist, 1 μM compound, 30 min preincubation
Method: as §1, §2, §3

[17] = target: T3, opioid κ receptor; test: biochemical
[18] = target: T4, opioid μ receptor; test: biochemical
[19] = target: T2, κ receptor
[20] = displacement of [3H]DADLE (1.3-2.0 nM), rat brain membranes, 100 nM DAMGO to block μ sites, read-out: Ki (nM) ± SEM δ

T2 sequence (P41144 whole entry): as the sequence (P41144 whole entry) above
T1 sequence (A0ACM8Q262 1-400): as the sequence (A0ACM8Q262 1-400) above

| Structure (SMILES) | Ki [1] | selectivity ratio κ/δ [8] | Ki [8] | Emax [10] | Ki [11, 20] | factor that prevented determining the A50 value ([13]; icv, mouse tail-flick) | selectivity ratio μ/δ [14] | Ki [14] | melting point | Ki [11] | Ki [17] | Ki [18] | also measured |
| --- | --- | --- | --- | --- | --- | --- | --- | --- | --- | --- | --- | --- | --- |
| Oc1ccc2c3c1O[C@H]1c4[nH]c5ccccc5c4C[C@@]4(O)C(C2)N(CC2CC2)CC[C@]314 [1, NTI, reference compound] | 3.21 ± 0.2 nM | – | – | – | – | – | – | – | – | – | – | – | Ki [2]: 8.85 ± 0.8 nM |
| Oc1ccc2c3c1OC1c4ncccc4CC4(O)C(C2)N(CC2CC2)CCC314 (stereo not shown) [2a] | – | – | – | – | – | – | – | – | – | – | – | – | selectivity ratio κ/δ [3]: 11; selectivity ratio μ/δ [4]: 1.9; antagonist activity MVD (δ) Ke [5]: 37.0 ± 1.0 nM; agonist activity MVD (δ) % max resp [6]: 0%; antagonist activity GPI (μ) Ke ([7]; PL-017 as agonist): 190 ± 65 nM; agonist activity GPI (μ) % max resp ([7]; percentage inhibition of contraction at 1 μM): 0% |
| CN1CC[C@]23c4c5ccc(O)c4O[C@H]2c2ncc(-c4ccccc4)cc2C[C@@]3(O)[C@H]1C5 [7c, 6,7-Didehydro-3,14-dihydroxy-4,5α-epoxy-17-methyl-5′-phenylpyrido[2′,3′:6,7]morphinan] | > 1000 nM | 124 | 360 ± 17 nM | 27% | 2.9 ± 0.12 nM | lack of efficacy | 9 | 26 ± 0.96 nM | 190 to 192 °C | – | – | – | IC50 [9]: 213 ± 55.8 nM; maximum percentage inhibition of SNC-80 stimulated [35S]GTP-γ-S binding [12]: 61±3%; % nociception @ 100 nmol ([13]; icv, 100 nmol, mouse tail-flick): 64% @ 100 nmol; naloxone sensitivity [13]: no; IC50 [15]: 920 nM |
| CN1CC[C@]23c4c5ccc(O)c4O[C@H]2c2ncc(-c4ccc(Cl)cc4)cc2C[C@@]3(O)[C@H]1C5 [7d, 5′-(4-Chlorophenyl)-6,7-didehydro-3,14-dihydroxy-4,5α-epoxy-17-methylpyrido[2′,3′:6,7]morphinan] | > 1000 nM | 118 | 468 ± 17 nM | – | – | lack of potency | 58 | 230 ± 10 nM | 196 to 198 °C | 3.96 ± 0.23 nM | – | – | Ki [2]: 767 ± 54 nM; Kb [16]: 38.2 ± 14.7 nM; antagonist activity MVD (δ) Ke [16]: 38 nM; % nociception @ 300 nmol ([13]; icv, mouse tail-flick): 43% @ 300 nmol; naloxone sensitivity [13]: partial; Ki [15]: 17 nM |
| CN1CCC23c4c5ccc(O)c4OC2c2ncc(-c4ccc(Br)cc4)cc2CC3(O)C1C5 (stereo not drawn) [7e, 5′-(4-Bromophenyl)-6,7-didehydro-3,14-dihydroxy-4,5α-epoxy-17-methylpyrido[2′,3′:6,7]morphinan] | – | 108 | – | – | – | – | 49 | – | 196 to 198 °C | 4 ± 0.3 nM | 432 ± 18 nM | 196 ± 4 nM | – |
| CN1CC[C@]23c4c5ccc(O)c4O[C@H]2c2ncc(-c4ccc(Cl)c(Cl)c4)cc2C[C@H]3[C@H]1C5 [7j, 5′-(3,4-Dichlorophenyl)-6,7-didehydro-4,5α-epoxy-3-hydroxy-17-methylpyrido[2′,3′:6,7]morphinan] | > 1000 nM | 75 | 278 ± 7 nM | 63 ± 3% | 3.7 ± 0.14 nM | lack of efficacy | 25 | 93 ± 4 nM | 184 to 186 °C | – | – | – | IC50 [9]: 489 ± 164 nM; maximum inhibition at the κ receptors [19]: 66±6%; IC50 [2]: 4770 nM; maximum percentage inhibition of SNC-80 stimulated [35S]GTP-γ-S binding [12]: 58±3%; % nociception @ 300 nmol ([13]; icv, mouse tail-flick): 44% @ 300 nmol; IC50 [15]: 74 nM |
| CN1CC[C@]23c4c5ccc(O)c4O[C@H]2c2ncc(-c4ccc(Cl)cc4Cl)cc2C[C@H]3[C@H]1C5 [7k, 5′-(2,4-Dichlorophenyl)-6,7-didehydro-4,5α-epoxy-3-hydroxy-17-methylpyrido[2′,3′:6,7]morphinan] | > 1000 nM | 366 | 403 ± 9 nM | 51 ± 5% | 1.1 nM | lack of efficacy | 88 | 97 ± 4 nM | 198 to 200 °C | – | – | – | enhancement in binding affinity at the δ receptor relative to 7h [11]: 4 fold; Ki ([19]; read-out: antagonist activity apparent Ki (nM ± SD) κ): 308 ± 21 nM; improvement in antagonist potency at the δ receptor relative to 7h [12]: 10 fold; Kb [16]: 5.02 ± 1.56 nM; antagonist activity MVD (δ) Ke [16]: 5 nM; % nociception @ 60 nmol ([13]; icv, 60 nmol, mouse tail-flick): 40% @ 60 nmol^e; Ki [15]: 1.08 ± 0.11 nM |
| COc1ccc2c3c1OC1c4ncc(-c5ccccc5)cc4CC4(O)C(C2)N(C)CCC314 (stereo not drawn) [7n, 6,7-didehydro-4,5α-epoxy-14-hydroxy-3-methoxy-17-methyl-5′-phenylpyrido[2′,3′:6,7]-morphinan] | – | >294 | – | – | – | – | 26 | – | > 250 °C | 34 ± 0.63 nM | > 10000 nM | 894 ± 19 nM | – |
| COc1ccc2c3c1OC1c4ncc(-c5ccc(Br)cc5)cc4CC4(O)C(C2)N(C)CCC314 (stereo not drawn) [7p, 5′-(4-bromophenyl)-6,7-didehydro-4,5α-epoxy-14-hydroxy-3-methoxy-17-methyl-pyrido[2′,3′:6,7]morphinan] | – | 320 | – | – | – | – | 82 | – | > 230 °C | 23 ± 1.3 nM | 7370 ± 522 nM | 1890 ± 72 nM | – |

From patent US7541364B2, “Pyridomorphinans, pyridazinomorphinans and use thereof” (priority 2003, dated 2009)
